According to paper PMC7614683, “A small molecule PI3Kα activator for cardioprotection and neuroregeneration” (Nature, 2023):

How the values were obtained:
Experiment in all cases: SelectScreen LanthaScreen Binding
Settings in all cases: 1000 nM
MAP4K1 (HPK1) = MAP4K1 (HPK1) (Homo sapiens, UniProt Q92918)
Description: (§1) 133 protein kinases and 7 lipid kinases were counterscreened, with 1938 used at 1 μM, using the Adapta, Lantha and Z-LYTE assays (SelectScreen Kinase Profiling Service; Thermofisher – experimental details of these assays can be found here: https://www.thermofisher.com/uk/en/home/industrial/pharma-biopharma/drug-discovery-development/target-and-lead-identification-and-validation/kinasebiology/kinase-activity-assays.html. The tree represention in KinMap[59] generated courtesy of Cell Signaling Technology, Inc. (www.cellsignal.com). mTORC1 (mTOR/RAPTOR/LST8) protein complex and ATM kinase and substrates were produced as previously described[57],[60]. Screening of 1938 was conducted using SuperSep Phos-Tag 50 μmol/l 100 x 100 x 6.6 mm 17-well (192-18001/199-18011) gels. For ATM assays, 100 nM ATM was incubated for 30 min at 30°C with 5 μM GST-p53 and 1 mM ATP, in the absence or presence of 200 μM 1938 in ATM Kinase Buffer (50 mM HEPES pH 7.5, 100 mM NaCl, 10% glycerol, 2 mM […], 5 mM MgCl2). As a positive control for ATM activation, the same reaction was carried out with 100 nM ATM/5 μM GST-p53/1 mM ATP in the presence of 100 nM Mre11-Rad50-Nbs1 (MRN) complex, a known activator of ATM[61]. For mTORC1 assays, 50 nM mTORC1 complex (mTOR/LST8/RAPTOR) was incubated for 3 h at 30°C with 15 μM 4E-BP1, 10 mM MgCl2 and 250 μM ATP, in the absence or presence of 200 μM 1938. As a ‘positive’ control, a higher concentration (150 nM) of mTORC1 complex (mTOR/LST8/RAPTOR) was incubated for 3 h at 30°C with 15 μM 4E-BP1, 10 mM MgCl2 and 250 μM ATP. Kinase reactions were quenched by addition of SDS-PAGE Loading Buffer (as per manufacturer’s instructions) and freezing at -20°C before being run on the Phos-tag gels at 150 V for 90 min. Gels were then stained using InstantBlue™ Coomassie, and quantified using BioRad Image Lab Software. Kinase assays were carried out in triplicate.

RET V804M = RET V804M (Homo sapiens, UniProt P07949, V804M)
Description: as §1

ULK2 = target: T1, ULK2 (Homo sapiens, UniProt Q8IYT8)
T1 sequence (Q8IYT8 1-1036): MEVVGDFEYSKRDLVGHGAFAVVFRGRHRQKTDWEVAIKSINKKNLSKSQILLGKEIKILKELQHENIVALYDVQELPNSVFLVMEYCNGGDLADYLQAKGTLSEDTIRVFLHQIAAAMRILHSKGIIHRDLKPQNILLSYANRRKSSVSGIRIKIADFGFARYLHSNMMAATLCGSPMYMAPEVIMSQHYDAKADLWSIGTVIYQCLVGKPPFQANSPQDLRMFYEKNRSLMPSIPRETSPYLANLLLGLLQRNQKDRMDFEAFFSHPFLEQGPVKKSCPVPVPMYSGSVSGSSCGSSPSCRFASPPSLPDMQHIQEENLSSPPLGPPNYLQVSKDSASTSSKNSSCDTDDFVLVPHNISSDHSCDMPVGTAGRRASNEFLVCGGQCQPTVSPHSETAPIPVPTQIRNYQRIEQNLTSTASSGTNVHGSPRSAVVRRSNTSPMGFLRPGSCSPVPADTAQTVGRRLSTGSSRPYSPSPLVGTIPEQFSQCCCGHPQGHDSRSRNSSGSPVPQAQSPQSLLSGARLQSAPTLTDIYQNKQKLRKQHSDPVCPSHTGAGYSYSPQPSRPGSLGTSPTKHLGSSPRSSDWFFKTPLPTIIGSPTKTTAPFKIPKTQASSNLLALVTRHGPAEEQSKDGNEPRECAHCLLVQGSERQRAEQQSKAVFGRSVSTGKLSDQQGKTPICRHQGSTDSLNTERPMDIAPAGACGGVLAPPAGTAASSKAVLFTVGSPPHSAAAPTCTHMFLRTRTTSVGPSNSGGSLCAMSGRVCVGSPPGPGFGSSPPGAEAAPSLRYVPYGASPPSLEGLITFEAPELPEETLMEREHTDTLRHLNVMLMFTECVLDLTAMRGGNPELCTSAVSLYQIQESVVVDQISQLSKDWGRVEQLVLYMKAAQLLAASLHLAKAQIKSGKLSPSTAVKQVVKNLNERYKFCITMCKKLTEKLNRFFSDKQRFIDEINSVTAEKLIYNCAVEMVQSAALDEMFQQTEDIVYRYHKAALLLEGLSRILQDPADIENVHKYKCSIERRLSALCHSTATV
Description: as §1

Sequence of RET V804M (P07949 29-1114 V804M): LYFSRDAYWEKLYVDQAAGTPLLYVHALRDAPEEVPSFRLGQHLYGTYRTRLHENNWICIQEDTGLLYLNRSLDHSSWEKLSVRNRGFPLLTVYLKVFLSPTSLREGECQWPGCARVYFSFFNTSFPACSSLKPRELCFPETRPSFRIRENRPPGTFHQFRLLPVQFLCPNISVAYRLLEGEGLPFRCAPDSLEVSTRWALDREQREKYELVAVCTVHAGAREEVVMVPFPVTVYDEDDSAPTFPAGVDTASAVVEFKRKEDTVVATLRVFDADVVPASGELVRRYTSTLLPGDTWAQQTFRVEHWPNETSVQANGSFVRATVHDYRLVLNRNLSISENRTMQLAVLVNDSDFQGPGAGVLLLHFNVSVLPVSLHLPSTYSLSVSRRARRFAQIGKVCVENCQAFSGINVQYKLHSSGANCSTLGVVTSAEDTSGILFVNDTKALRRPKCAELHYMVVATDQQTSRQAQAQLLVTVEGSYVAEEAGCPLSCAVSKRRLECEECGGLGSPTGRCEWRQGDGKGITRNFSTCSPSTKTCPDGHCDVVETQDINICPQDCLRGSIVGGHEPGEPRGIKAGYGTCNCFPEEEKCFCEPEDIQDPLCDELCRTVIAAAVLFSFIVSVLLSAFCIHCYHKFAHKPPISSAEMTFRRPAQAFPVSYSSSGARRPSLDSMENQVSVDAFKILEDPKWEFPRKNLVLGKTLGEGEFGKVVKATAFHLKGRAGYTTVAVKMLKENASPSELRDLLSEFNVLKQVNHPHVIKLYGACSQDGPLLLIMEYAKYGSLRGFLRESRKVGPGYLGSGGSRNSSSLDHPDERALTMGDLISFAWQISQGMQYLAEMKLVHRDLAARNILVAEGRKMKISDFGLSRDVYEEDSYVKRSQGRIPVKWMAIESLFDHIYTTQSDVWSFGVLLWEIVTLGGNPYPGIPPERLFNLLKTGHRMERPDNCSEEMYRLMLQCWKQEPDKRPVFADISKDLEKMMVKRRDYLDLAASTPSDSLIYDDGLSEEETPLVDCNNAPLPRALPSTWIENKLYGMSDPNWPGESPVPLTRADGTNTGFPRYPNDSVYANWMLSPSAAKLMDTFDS
Sequence of MAP4K1 (HPK1) (Q92918 whole entry): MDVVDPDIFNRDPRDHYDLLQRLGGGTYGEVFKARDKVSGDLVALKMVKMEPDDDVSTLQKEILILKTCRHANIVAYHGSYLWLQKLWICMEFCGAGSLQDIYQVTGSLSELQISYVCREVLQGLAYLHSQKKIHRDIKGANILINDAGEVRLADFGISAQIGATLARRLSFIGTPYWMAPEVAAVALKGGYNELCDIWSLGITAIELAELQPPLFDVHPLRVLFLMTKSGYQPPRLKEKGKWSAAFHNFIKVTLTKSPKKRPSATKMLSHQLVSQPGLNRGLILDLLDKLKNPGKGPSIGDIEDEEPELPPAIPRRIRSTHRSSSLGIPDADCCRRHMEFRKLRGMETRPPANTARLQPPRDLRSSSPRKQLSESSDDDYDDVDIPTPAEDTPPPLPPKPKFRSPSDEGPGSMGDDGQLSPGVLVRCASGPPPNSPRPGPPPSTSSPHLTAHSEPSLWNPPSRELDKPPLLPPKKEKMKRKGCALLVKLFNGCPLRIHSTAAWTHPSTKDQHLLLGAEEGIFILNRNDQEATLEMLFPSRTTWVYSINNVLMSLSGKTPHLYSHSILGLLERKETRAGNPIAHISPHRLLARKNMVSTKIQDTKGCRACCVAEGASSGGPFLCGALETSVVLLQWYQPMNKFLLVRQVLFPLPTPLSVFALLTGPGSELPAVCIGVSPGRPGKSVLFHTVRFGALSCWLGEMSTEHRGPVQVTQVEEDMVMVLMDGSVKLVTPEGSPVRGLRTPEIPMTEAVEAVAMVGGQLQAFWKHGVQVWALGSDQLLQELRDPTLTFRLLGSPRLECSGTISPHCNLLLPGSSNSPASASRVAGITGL

CCN1CCN(c2ccc(Nc3cc(Nc4cccc5c4N(C(C)=O)CC5)ccn3)cc2)CC1 [Compound 1938]
% Displacement Point 1 (MAP4K1 (HPK1)): -3.25%
% Displacement Point 2 (MAP4K1 (HPK1)): 6.64%
% Displacement mean (MAP4K1 (HPK1)): 1.7%
% Displacement Point 1 (RET V804M): 1.24%
% Displacement Point 2 (RET V804M): -3%
% Displacement mean (RET V804M): -0.94%
% Displacement Point 1 (ULK2): 3%
% Displacement Point 2 (ULK2): -0.488%
% Displacement mean (ULK2): 1.23%
